Assay results published in patent US8927580B2, “Thiosemicarbazone compounds and use in the treatment of cancer” (Oncochel Therapeutics LLC, priority 2010, dated 2015).

Columns and labels:
[1] = system: PANC 1 pancreatic cancer cells; assay: MTT proliferation assay, PANC 1; assay type: cell-based; details: Homo sapiens; PANC 1, MTT, 72 h
Procedure: (§1) The pancreatic cancer cell lines, including MIAPaCa-2, PANC 1, CAPAN-2 and CFPAC-1 were a generous gift from Prof. Andrew Biankin (Garvan Institute, NSW, Australia). The MIAPaCa-2, PANC 1 and CFPAC-1 cell lines were grown in DMEM medium (Invitrogen) and CAPAN-2 cells were grown in McCoy's medium (Invitrogen). All media was supplemented with 10% (v/v) fetal calf serum (Invitrogen), 1% (v/v) non-essential amino acids (Invitrogen), 1% (v/v) sodium pyruvate (Invitrogen), 2 mM L-glutamine (Invitrogen), 100 μg/mL of streptomycin (Invitrogen), 100 U/ml penicillin (Invitrogen), and 0.28 μg/mL of fungizone.
(§2) To further examine the spectrum of anti-proliferative activity, Dp4cycH4mT was tested against pancreatic cancer in vitro, performing MTT proliferation assays with PANC 1, MIAPaCa-2, CFPAC-1 and CAPAN-2 pancreatic cancer cells. As a comparison, currently used treatments for pancreatic cancer including gemcitabine and 5-fluorouracil were also tested. The iron chelator, DFO, was included as a positive control.
(§3) Table 2A. Anti-proliferative activity of Dp4cycH4mT against pancreatic cancer cell lines. Growth and antiproliferative activity IC50 (μM) values of Dp4cycH4mT in a variety of pancreatic cell lines and in comparison to DFO and the clinically used drugs gemcitabine and 5-fluorouracil as determined by the MTT assay. Cells were seeded and allowed to attach to wells for 24 h and then incubated for 72 h at 37° C. with control medium or the chelators. Results are mean±SD (3 experiments).
as §3, with “2B.” for “2A.”, “IC90” for “Growth and antiproliferative activity IC50”

[2] = system: CFPAC-1 pancreatic cancer cells; assay: MTT proliferation assay, CFPAC-1; assay type: cell-based; details: Homo sapiens; CFPAC-1, MTT, 72 h
Procedure: as §1, §2, §3
as §3, with “2B.” for “2A.”, “IC90” for “Growth and antiproliferative activity IC50”

[3] = system: SK-N-MC neuroepithelioma cell line; assay: MTT anti-proliferative assay in SK-N-MC cells; assay type: cell-based, human; details: 72 h at 37° C., mean±SD (3 experiments)
Procedure: The cells were maintained in minimum essential media (MEM; Invitrogen, CA, USA) which contained 10% fetal calf serum (FCS; JRH Biosciences, Kansas, USA), 1% non-essential amino acids (Gibco, Victoria, Australia), 1% penicillin/streptomycin/glutamine (Gibco, VIC, Australia) and fungizone ([…]; Squibb Pharmaceuticals, Montreal, Canada).
The ability of the compounds to inhibit cellular proliferation was assessed initially in SK-N-MC cells by the MTT assay.
Table 1. […] Cells were seed and allowed to attach to wells for 24 h and then incubated for 72 h at 37° C. with control medium or the chelators.

[4] = system: CAPAN-2 pancreatic cancer cells; assay: MTT proliferation assay, CAPAN-2; assay type: cell-based; details: Homo sapiens; CAPAN-2, MTT, 72 h
Procedure: as §1, §2, §3
as §3, with “2B.” for “2A.”, “IC90” for “Growth and antiproliferative activity IC50”

[5] = system: SK-N-MC neuroepithelioma cells; assay: Iron uptake assay (59Fe uptake from 59Fe-transferrin); assay type: cell-based, human; details: 25 μM chelator, 3 h at 37° C., 59Fe-Tf
Procedure: Cells were cultured in the same way as for the iron efflux experiments. […] At the end of the incubation the culture dishes were placed on ice, the media aspirated, and the cells washed 4 times with ice cold PBS. Protease (1 mL; 1 mg/mL; Sigma-Aldrich, NSW, Australia) solution was added to each plate and allowed to incubate on ice for 30 min. This facilitated the removal of membrane bound ^59Fe-Tf. Cells were then scraped from the plastic surface using a Teflon spatula and collected in Eppendorf tubes. These were centrifuged at 10000 rpm and 4° C. for 3 min. The supernatant was then transferred into counting tubes and the cell pellet resuspended in PBS before also being transferred into another set of counting tubes. Radioactivity was measured using a Wallac Wizard 3″ Gamma Counter (PerkinElmer, MA, USA). Results are expressed as average ^59Fe content of the cellular fraction as a percentage of the control value.

[6] = system: SK-N-MC neuroepithelioma cells; assay: Iron efflux assay (59Fe release from pre-labeled cells); assay type: cell-based, human; details: 25 μM chelator, 3 h at 37° C.
Procedure: The culture dishes were then placed on ice, the supernatant containing excess ^59Fe-Tf was aspirated and the cells washed 4 times with ice-cold PBS. […] After 3 h the culture dishes were again placed on ice, the media was collected in counting tubes and this provided a measurement of released ^59Fe. Ice-cold PBS (1 mL) was added to plates containing cells and cells were scraped from the plastic surface using a Teflon spatula and also collected in counting tubes. These tubes represent the intracellular ^59Fe content. Results are expressed as total ^59Fe released as a percentage of total ^59Fe present. Radioactivity was measured using a Wallac Wizard 3″ Gamma Counter (PerkinElmer, MA, USA).

[7] = system: MIAPaCa-2 pancreatic cancer cells; assay: MTT proliferation assay, MIAPaCa-2; assay type: cell-based; details: Homo sapiens, MIA PaCa-2; MIAPaCa-2, MTT, 72 h
Procedure: as §1, §2, §3
as §3, with “2B.” for “2A.”, “IC90” for “Growth and antiproliferative activity IC50”

| SMILES | IC50 [1] [µM] | IC90 [1] [µM] | IC50 [2] [µM] | IC90 [2] [µM] | IC50 ([3]; Homo sapiens) [µM] | IC50 [4] [µM] | IC90 [4] [µM] | cellular 59Fe uptake (% of the control) [5] [%] | cellular 59Fe mobilised (59Fe released as percentage of total 59Fe) [6] [%] | IC50 [7] [µM] | IC90 [7] [µM] | IC50 [3] [µM] |
| --- | --- | --- | --- | --- | --- | --- | --- | --- | --- | --- | --- | --- |
| CC(=O)N(O)CCCCCNC(=O)CCC(=O)N(O)CCCCCNC(=O)CCC(=O)N(O)CCCCCN [DFO, desferrioxamine] | 9.5 ± 1.4 | > 80 | 14.7 ± 3.1 | > 80 | 13.4 ± 3.7 | 7 ± 5.4 | > 80 | 84 | 16 | 38.7 ± 6.2 | > 80 | – |
| O=C(NN=Cc1c(O)ccc2ccccc12)c1ccncc1 [compound 311, 2-hydroxy-1-naphthylaldehyde isonicotinoyl hydrazone, reference compound] | – | – | – | – | – | – | – | 5 | – | – | – | 0.72 ± 0.32 |
